# Measurements as given in publication PMC2744931, “Glutamate Uptake Triggers Transporter-Mediated GABA Release from Astrocytes” (PLoS ONE, 2009).
# Like-named read-outs stand apart in the source and are kept apart here.
# Assays:
# [1] = tested on: acute rat hippocampal slices; test: [3H]GABA efflux from acute rat hippocampal slices (microvolume superfusion); assay type: cell-based; conditions: for effect on Glu-induced GABA release in hippocampal slices: DL-AP5 50 µM, CNQX 10 µM, (S)-MCPG 500 µM applied as Glu receptor antagonists
# Procedure: Radiolabeling of 400 µm thick acute slices was conducted in 200 µl of ACSF in a glass tube. […] To preferentially label the cytosolic over the vesicular pools, incubation of slices at 30°C lasted for 10 min [54]. Slices were washed with fresh ACSF containing GABA-T inhibitors, thereafter placed in a custom-built closed micro-volume (50 µl) chamber secured in a water bath thermostated at 30°C [55]. […] The superfusate was collected in 0.5 ml fractions. After washing for 10 min, 10 fractions were collected to define the basal release of radioactivity (‘pre-stimulus’). At this point, the hippocampal slice was exposed to 100 µM Glu for a period of 10 min (‘drug application’), followed by further 10 min of washing with ACSF (‘washout’). Radioactivity of each 0.5 ml fraction counted in 3 ml HiSafe 3 scintillation mixture was expressed as the percentage of the actual radioactivity content of the slice (fractional release). Fractional release data from individual slices were normalized to a first order exponential curve (obtained by fitting the pre-stimulus and the last 3 washout values). Normalized percent efflux data from fractions of ‘pre-stimulus’ (1–10 min) versus ‘drug application’ (11–20 min) periods were averaged and compared by statistical analysis.
# hippocampus = conditions: cited from earlier work
# [2] = tested on: GABA transport in rat cerebrocortical NPMV (GAT-2/3); test: [3H]GABA uptake in rat cerebrocortical native plasma membrane vesicles (NPMV) in the presence of 100 µM NNC-711; assay type: biochemical; conditions: for modulation of the effect of Glu on GABA transport / cytosolic GABA level in rat cortical NPMV: 100 µM NNC-711 present; for effect on GABA transport in rat cortical NPMV: 10 min preincubation, 100 µM NNC-711 (Figure 1B)
# Procedure: Cerebral cortices of 4–6 weeks old male Wistar rats (Toxicoop, Hungary) and frozen human brain tissue samples (Hungarian Brain Tissue Bank, Budapest) were used to prepare NPMV fractions, that contain numerous membrane vesicles of different sizes and shapes, a few intact synaptosomes and free mitochondria. […] Afterward, preincubated solution was incubated with [^3H]GABA (10 nM, Amersham) and GABA (90 nM, Sigma) for 1 min. In case of [^3H]β-alanine uptake, incubation solution contained 100 nM [^3H]β-alanine (Amersham) and 900 nM β-alanine (Sigma). After the incubation, samples were immediately filtered through glass fiber filters and washed twice with ice-cold HEPES buffer. The [^3H]GABA level inside the plasma membrane vesicles was determined by liquid scintillation method. Although this method is generally used to measure GABA uptake, we applied it to follow GABA release due to the simplicity and reliability of the assay. We also determined GABA release by preloading [^3H]GABA into NPMV vesicles and measuring the [^3H]GABA level in the intracellular and extracellular milieu. […] Non-specific uptake was determined in the presence of 1 mM guvacine. The radioactivity of samples was counted in HiSafe 3 (Perkin Elmer) scintillation mixture.
# GAT-3 = tested on: GAT-3; design: method as in Borden,L.A. (1996) Neurochem Int. 4: 335–356; conditions: ref Borden,L.A. (1996) Neurochem Int. 4: 335–356; cited from earlier work
# GAT-2 = tested on: GAT-2; design: method as in Borden,L.A. (1996) Neurochem Int. 4: 335–356; conditions: ref Borden,L.A. (1996) Neurochem Int. 4: 335–356; cited from earlier work
# BGT = tested on: BGT; design: method as in Borden,L.A. (1996) Neurochem Int. 4: 335–356; conditions: ref Borden,L.A. (1996) Neurochem Int. 4: 335–356; cited from earlier work
# GAT-1 = tested on: GAT-1; design: method as in Borden,L.A. (1996) Neurochem Int. 4: 335–356; conditions: ref Borden,L.A. (1996) Neurochem Int. 4: 335–356; cited from earlier work
# rat hippocampus = test: In vivo microdialysis and HPLC amino acid detection in the hippocampus
# Procedure: Male Wistar rats (300–400 g) were anaesthetized with halothane (1% in air) and microdialysis probes were implanted into the ventral hippocampus (A: −5.0, L: 5.0, V: −8.0) as described previously. To minimize tissue damage, the final position of the probes was reached slowly, in not less than 20 min. Perfusion of artificial cerebrospinal fluid, containing 144 mM NaCl, 3 mM KCl, 1 mM MgCl2, 2 mM CaCl2 (pH 7.4), was performed at a rate of 1 µl/min. The dialysate samples during 20 min were stored at −20°C. To establish the background amino acid concentration, each experiment started with the collection of three control samples with <10% variation. NNC-711 was applied bilaterally for 60 min followed by the simultaneous application of t-PDC and NNC-711 for 60 min. Concentration of amino acids was measured by pre-column derivatization of primary amino acids with orthophthalaldehyde (OPA, Sigma). Derivatization was performed at pH 10.4 in the presence of mercaptoethanol. OPA-derivatized amino acids were detected with fluorescence detector excitation wavelength 340 nm and emission wavelength 440 nm. Because of the instability of OPA derivatives, the HPLC technique was automated on an HP 1100 series system. Amino acids were separated on HP Hypersyl ODS reversed-phase columns (200×2.1 mm) filled with 5 µm C-18 spherical packing material. Eluent A was 0.1 M phosphate buffer containing 0.5% (vol/vol) tetrahydrofuran (Merck), pH 5.6, while eluent B contained 70% acetonitrile (Merck) in eluent A, pH 5.6. The gradient profile was: 12% B at 0 min, 23% B at 9 min, 36% B at 18 min, 100% B at 20 min, 100% B at 25 min and 12% B at 30 min. The column equilibration time was 8 min. External standards of 10 µM amino acids were injected after every 20 samples. Chromatograms were evaluated with HP Chem-Station software. Concentration of GABA measured in dialysate samples collected during drug applications were related to averaged GABA concentration of control samples collected for an hour prior to drug application and were given as percent changes.
# [3] = tested on: acute rat hippocampal slices; test: [3H]GABA efflux from acute rat hippocampal slices (microvolume superfusion); assay type: cell-based; conditions: for alteration of [GABA]o during blockade of GAT-2/3: no exogenous Glu, n = 5
# [4] = GABA transport in the presence of 100 µM NNC-711, present study, read-out: IC50 Rat cerebrocortical NPMV
# [5] = rat cortical NPMV, in the presence of NNC-711, read-out: IC50, effect on GABA transport
# [6] = 100 µM SNAP-5114, nominally Mg2+-free ACSF
compound,measurement,setting,value
"6-cyano-7-nitroquinoxaline-2,3-dione [CNQX]",effect on Glu-induced GABA release in hippocampal slices,[1],partially inhibited
"NC(CCCP(=O)(O)O)C(=O)O (racemic) [DL-AP5, DL-2-amino-5-phosphonopentanoic acid]",effect on Glu-induced GABA release in hippocampal slices,[1],partially inhibited
"N[C@H](C(=O)O)[C@H](OCc1ccccc1)C(=O)O (racemic) [TBOA, DL-threo-β-benzyloxyaspartic acid]",neuronal damage after in vivo administration in the hippocampus,hippocampus,induce neuronal damage in the CA1 and the dentate gyrus
same,modulation of the effect of Glu on GABA transport / cytosolic GABA level in rat cortical NPMV,[2],further reduced
same,elevation of [GABA]o ([3H]GABA efflux),"[1]; Glu-induced release in the presence of 100 µM TBOA, n = 4",123±10 % of pre-stimulus control
same,elevation of [GABA]o ([3H]GABA efflux),"[1]; Glu-induced release in the presence of 1000 µM TBOA, n = 4",109±1 % of pre-stimulus control
"C[N+]1(C)CCc2cc3c(cc2[C@H]1[C@@H]1OC(=O)c2c1ccc1c2OCO1)OCO3.[I-] [(1S,9R)-bicuculline methiodide]",modulation of the effect of Glu on GABA transport / cytosolic GABA level in rat cortical NPMV,[2],did not modulate the effect of Glu on the cytosolic GABA level
NC[C@H](CC(=O)O)c1ccc(Cl)cc1 [(R)-baclofen],modulation of the effect of Glu on GABA transport / cytosolic GABA level in rat cortical NPMV,[2],did not modulate the effect of Glu on the cytosolic GABA level
"C[C@@](N)(C(=O)O)c1ccc(C(=O)O)cc1 [(S)-MCPG, (S)-α-methyl-4-carboxyphenylglycine]",effect on Glu-induced GABA release in hippocampal slices,[1],partially inhibited
C[N+](C)(C)CC(=O)O [Betaine],IC50,GAT-3,> 1000 µM
same,IC50,GAT-2,> 1000 µM
same,IC50,BGT,173 µM
same,IC50,GAT-1,> 1000 µM
same,IC50,[2]; [4],> 1000 µM
[Cd+2] [Cd^2+],elevation of [GABA]o ([3H]GABA efflux),"[1]; Glu-induced release in the presence of 50 µM Cd2+ salt in the superfusion, n = 3",143±10 % of pre-stimulus control
N[C@H](CC(=O)O)C(=O)O [D-Asp],effect on GABA transport in rat cortical NPMV,[2],able to affect GABA transport
N[C@H](CCC(=O)O)C(=O)O [D-Glu],effect on GABA transport in rat cortical NPMV,[2],able to affect GABA transport
CC(C)C[C@@H](N)C(=O)O [D-Leu],IC50,[2]; [5],> 1000 µM
N[C@H](CO)C(=O)O [D-Ser],IC50,[2]; [5],> 1000 µM
"CC(C)[C@H]1CN[C@H](C(=O)O)[C@H]1CC(=O)O [DHK, dihydrokainic acid]",modulation of the effect of Glu on GABA transport / cytosolic GABA level in rat cortical NPMV,[2],significantly reduced
NCCS(=O)O [Hypotaurine],IC50,GAT-3,73 µM
same,IC50,GAT-2,52 µM
same,IC50,BGT,536 µM
same,IC50,GAT-1,1010 µM
same,IC50,[2]; [4],20 ± 0.4 µM
N[C@@H](CC(=O)O)C(=O)O [L-Asp],effect on GABA transport in rat cortical NPMV,[2],able to affect GABA transport
CC(C)C[C@H](N)C(=O)O [L-Leu],IC50,[2]; [5],> 1000 µM
N[C@@H](CO)C(=O)O [L-Ser],IC50,[2]; [5],> 1000 µM
"O=C(O)C1=CCCN(CCON=C(c2ccccc2)c2ccccc2)C1 [NNC-711, 1,2,5,6-tetrahydro-1-[2-[[(diphenylmethylene)amino]oxy]ethyl]-3-pyridinecarboxylic acid]",[Arginine]o in the rat hippocampus in vivo,"rat hippocampus; control for non-specific release, n = 10",100±25 % of control
same,[GABA]o in the rat hippocampus in vivo,"rat hippocampus; microdialysis application, t-PDC applied together with NNC-711, n = 10",160±18 % of control
same,reduction of the [3H]GABA uptake,"[2]; 100 µM NNC-711, NPMV fractions, n = 51",86±3%
O=C(O)C1CCCNC1 (centres unmarked) [Nipecotic acid],IC50,[2]; [4],28 ± 0.5 µM
O=C(O)C1CCCN(CCC=C(c2ccccc2)c2ccccc2)C1 (centres unmarked) [SKF89976A],IC50,GAT-3,4390 µM
same,IC50,GAT-2,550 µM
same,IC50,BGT,7210 µM
same,IC50,GAT-1,0.64 µM
same,IC50,[2]; [4],372 ± 9 µM
"COc1ccc(C(OCCN2CCC[C@H](C(=O)O)C2)(c2ccc(OC)cc2)c2ccc(OC)cc2)cc1 [SNAP-5114, 1-[2-[tris(4-methoxyphenyl)methoxy]ethyl]-(S)-3-piperidinecarboxylic acid]",reduction of [3H]GABA release compared to the pre-application period,[3]; [6],10%
same,alteration of [GABA]o during blockade of GAT-2/3,[3]; [6],90±4 % of pre-application control
same,alteration of [GABA]o during blockade of GAT-2/3,"[3]; 100 µM SNAP-5114, normal ACSF",100±6 % of pre-application control
same,elevation of [GABA]o ([3H]GABA efflux),"[1]; Glu-induced release in the presence of SNAP-5114, n = 4",109±4 % of pre-stimulus control
NCCS(=O)(=O)O [Taurine],IC50,GAT-3,2860 µM
same,IC50,GAT-2,1270 µM
same,IC50,BGT,> 1000 µM
same,IC50,GAT-1,> 1000 µM
same,IC50,[2]; [4],400 ± 7 µM
N[C@@H](CS(=O)(=O)O)C(=O)O [cysteic acid],effect on GABA transport in rat cortical NPMV,[2],able to affect GABA transport
NCCc1ccc(O)c(O)c1 [dopamine],IC50,[2]; [5],> 1000 µM
NCCc1c[nH]c2ccc(O)cc12 [serotonin],IC50,[2]; [5],> 1000 µM
O=C(O)CCC(=O)O [succinate],IC50,"[2]; read-out: IC50, effect on GABA transport",> 1000 µM
NCCC(=O)O [β-alanine],IC50,GAT-3,110 µM
same,IC50,GAT-2,66 µM
same,IC50,BGT,1100 µM
same,IC50,GAT-1,2920 µM
same,IC50,[2]; [4],26 ± 4 µM
penicillin,IC50,[2]; [5],> 1000 µM
